Data published in the NIST ThermoML archive (doi:10.1021/acs.jced.8b01189).
Numbers after ± are expanded uncertainties.

Assays:
[1] = 298.15 K; 100 kPa; Liquid; Vibrating tube method
[2] = xn = mol fraction of the nth substance listed; conditions: 298.15 K, 100 kPa, Liquid, Vibrating tube method

Q: Which mass density [1] does the source give for `CCCCCCCCCCO` [decan-1-ol] here?
A: The mass density was 826.1 ± 1 kg/m3.

Q: Which mass density ([2]; x2 = 0) does the source give for `CCCCCCCCCCO` [decan-1-ol] + CCCCC(=O)O here?
A: The mass density was 826.1 ± 1 kg/m3.

Q: For `CCCCCCCO` [heptan-1-ol], which mass density [1] is on record?
A: Its mass density is 818.7 ± 1 kg/m3.

Q: With `CCCCCCCO` [heptan-1-ol] + CCCCC(=O)O as the compound, how does the mass density ([2]; x2 = 0) read?
A: Its mass density is 818.7 ± 1 kg/m3.

Q: With `CCCCCCO` [hexan-1-ol] as the compound, how does the mass density [1] read?
A: Its mass density is 815.1 ± 1 kg/m3.

Q: With `CCCCCCO` [hexan-1-ol] + CCCCC(=O)O as the compound, how does the mass density ([2]; x2 = 0) read?
A: The mass density was 815.1 ± 1 kg/m3.

Q: Which mass density [1] does the source give for `CCCCCCCCCO` [nonan-1-ol] here?
A: Its mass density is 824 ± 1 kg/m3.

Q: Which mass density ([2]; x2 = 0) does the source give for `CCCCCCCCCO` [nonan-1-ol] + CCCCC(=O)O here?
A: The mass density was 824 ± 1 kg/m3.

Q: For `CCCCCCCCO` [octan-1-ol], which mass density [1] is on record?
A: The mass density was 821.4 ± 1 kg/m3.

Q: With `CCCCCCCCO` [octan-1-ol] + CCCCC(=O)O as the compound, how does the mass density ([2]; x2 = 0) read?
A: The mass density was 821.4 ± 1 kg/m3.

Q: For `CCCCCO` [pentan-1-ol], which mass density [1] is on record?
A: Its mass density is 810.8 ± 1 kg/m3.

Q: Which mass density ([2]; x2 = 0) does the source give for `CCCCCO` [pentan-1-ol] + CCCCC(=O)O here?
A: Its mass density is 810.8 ± 1 kg/m3.

Q: Which mass density [1] does the source give for `CCCCC(=O)O` [pentanoic acid] here?
A: Its mass density is 935.1 ± 1 kg/m3.

Q: What does the source list for `CCCCC(=O)O` [pentanoic acid] + CCCCCCCCCCO?
A: mass density ([2]; x1 = 0.0809): 831.4 ± 1 kg/m3; mass density ([2]; x1 = 0.1598): 837 ± 1 kg/m3; mass density ([2]; x1 = 0.2406): 843 ± 1 kg/m3; mass density ([2]; x1 = 0.3493): 852 ± 1 kg/m3; mass density ([2]; x1 = 0.4405): 860.2 ± 1 kg/m3; mass density ([2]; x1 = 0.5601): 872.3 ± 1 kg/m3; mass density ([2]; x1 = 0.6502): 882.5 ± 1 kg/m3; mass density ([2]; x1 = 0.7406): 893.9 ± 1 kg/m3; mass density ([2]; x1 = 0.8504): 909.6 ± 1.1 kg/m3; mass density ([2]; x1 = 0.9411): 924.2 ± 1.1 kg/m3; mass density ([2]; x1 = 1): 935.1 ± 1 kg/m3

Q: With `CCCCC(=O)O` [pentanoic acid] + CCCCCCCCCO as the compound, how does the mass density ([2]; x1 = 0.0802) read?
A: Its mass density is 830 ± 1 kg/m3.

Q: And the mass density ([2]; x1 = 0.1604)?
A: The mass density was 836.1 ± 1 kg/m3.

Q: And the mass density ([2]; x1 = 0.2394)?
A: Its mass density is 842.8 ± 1 kg/m3.

Q: And the mass density ([2]; x1 = 0.3496)?
A: Its mass density is 852.5 ± 1 kg/m3.

Q: What about the mass density ([2]; x1 = 0.4397) of the same compound?
A: The mass density was 861.2 ± 1 kg/m3.

Q: What about the mass density ([2]; x1 = 0.5605) of the same compound?
A: Its mass density is 873.9 ± 1 kg/m3.

Q: What about the mass density ([2]; x1 = 0.6497) of the same compound?
A: The mass density was 884.3 ± 1 kg/m3.

Q: And the mass density ([2]; x1 = 0.7401)?
A: The mass density was 895.6 ± 1 kg/m3.

Q: What about the mass density ([2]; x1 = 0.8502) of the same compound?
A: The mass density was 911 ± 1 kg/m3.

Q: And the mass density ([2]; x1 = 0.9403)?
A: The mass density was 925 ± 1.1 kg/m3.

Q: And the mass density ([2]; x1 = 1)?
A: The mass density was 935.1 ± 1 kg/m3.

Q: With `CCCCC(=O)O` [pentanoic acid] + CCCCCCCCO as the compound, how does the mass density ([2]; x1 = 0.0809) read?
A: Its mass density is 828.2 ± 1 kg/m3.

Q: What about the mass density ([2]; x1 = 0.1604) of the same compound?
A: The mass density was 835.1 ± 1 kg/m3.

Q: What about the mass density ([2]; x1 = 0.2392) of the same compound?
A: The mass density was 842.4 ± 1 kg/m3.

Q: And the mass density ([2]; x1 = 0.3496)?
A: The mass density was 853 ± 1 kg/m3.

Q: What about the mass density ([2]; x1 = 0.4399) of the same compound?
A: Its mass density is 862.3 ± 1 kg/m3.

Q: And the mass density ([2]; x1 = 0.5605)?
A: The mass density was 875.5 ± 1 kg/m3.

Q: And the mass density ([2]; x1 = 0.6497)?
A: The mass density was 886.1 ± 1 kg/m3.

Q: What about the mass density ([2]; x1 = 0.7401) of the same compound?
A: Its mass density is 897.4 ± 1 kg/m3.

Q: What about the mass density ([2]; x1 = 0.8504) of the same compound?
A: Its mass density is 912.4 ± 1 kg/m3.

Q: And the mass density ([2]; x1 = 0.9403)?
A: The mass density was 925.7 ± 1.1 kg/m3.

Q: What about the mass density ([2]; x1 = 1) of the same compound?
A: Its mass density is 935.1 ± 1 kg/m3.

Q: Which mass density ([2]; x1 = 0.0812) does the source give for `CCCCC(=O)O` [pentanoic acid] + CCCCCCCO here?
A: The mass density was 826.5 ± 1 kg/m3.

Q: And the mass density ([2]; x1 = 0.1601)?
A: The mass density was 834.3 ± 1 kg/m3.

Q: And the mass density ([2]; x1 = 0.24)?
A: Its mass density is 842.5 ± 1 kg/m3.

Q: And the mass density ([2]; x1 = 0.3506)?
A: The mass density was 854.2 ± 1 kg/m3.

Q: And the mass density ([2]; x1 = 0.4398)?
A: The mass density was 864 ± 1 kg/m3.

Q: And the mass density ([2]; x1 = 0.5605)?
A: The mass density was 877.8 ± 1 kg/m3.

Q: And the mass density ([2]; x1 = 0.6496)?
A: The mass density was 888.5 ± 1 kg/m3.

Q: What about the mass density ([2]; x1 = 0.7405) of the same compound?
A: The mass density was 899.7 ± 1 kg/m3.

Q: What about the mass density ([2]; x1 = 0.8501) of the same compound?
A: The mass density was 914.1 ± 1 kg/m3.

Q: And the mass density ([2]; x1 = 0.9405)?
A: The mass density was 926.5 ± 1 kg/m3.

Q: And the mass density ([2]; x1 = 1)?
A: Its mass density is 935.1 ± 1 kg/m3.

Q: For `CCCCC(=O)O` [pentanoic acid] + CCCCCCO, which mass density ([2]; x1 = 0.0924) is on record?
A: The mass density was 825.4 ± 1 kg/m3.

Q: What about the mass density ([2]; x1 = 0.1783) of the same compound?
A: Its mass density is 835.2 ± 1 kg/m3.

Q: What about the mass density ([2]; x1 = 0.264) of the same compound?
A: Its mass density is 845.1 ± 1 kg/m3.

Q: And the mass density ([2]; x1 = 0.3796)?
A: Its mass density is 858.6 ± 1 kg/m3.

Q: What about the mass density ([2]; x1 = 0.4718) of the same compound?
A: The mass density was 869.5 ± 1 kg/m3.

Q: What about the mass density ([2]; x1 = 0.5914) of the same compound?
A: Its mass density is 883.9 ± 1 kg/m3.

Q: What about the mass density ([2]; x1 = 0.6785) of the same compound?
A: The mass density was 894.5 ± 1 kg/m3.

Q: What about the mass density ([2]; x1 = 0.7639) of the same compound?
A: Its mass density is 905 ± 1 kg/m3.

Q: What about the mass density ([2]; x1 = 0.8656) of the same compound?
A: The mass density was 917.8 ± 1 kg/m3.

Q: What about the mass density ([2]; x1 = 0.9468) of the same compound?
A: Its mass density is 928.2 ± 1 kg/m3.

Q: What about the mass density ([2]; x1 = 1) of the same compound?
A: The mass density was 935.1 ± 1 kg/m3.

Q: Which mass density ([2]; x1 = 0.0807) does the source give for `CCCCC(=O)O` [pentanoic acid] + CCCCCO here?
A: Its mass density is 821.4 ± 1 kg/m3.

Q: What about the mass density ([2]; x1 = 0.1596) of the same compound?
A: Its mass density is 831.9 ± 1 kg/m3.

Q: And the mass density ([2]; x1 = 0.2398)?
A: Its mass density is 842.4 ± 1 kg/m3.

Q: And the mass density ([2]; x1 = 0.3501)?
A: Its mass density is 856.7 ± 1 kg/m3.

Q: And the mass density ([2]; x1 = 0.4401)?
A: The mass density was 868.2 ± 1 kg/m3.

Q: And the mass density ([2]; x1 = 0.5604)?
A: Its mass density is 883.1 ± 1 kg/m3.

Q: What about the mass density ([2]; x1 = 0.6498) of the same compound?
A: The mass density was 894 ± 1 kg/m3.

Q: And the mass density ([2]; x1 = 0.7399)?
A: The mass density was 904.7 ± 1 kg/m3.

Q: And the mass density ([2]; x1 = 0.8498)?
A: Its mass density is 917.6 ± 1 kg/m3.

Q: And the mass density ([2]; x1 = 0.9396)?
A: The mass density was 928.1 ± 1 kg/m3.

Q: What about the mass density ([2]; x1 = 1) of the same compound?
A: Its mass density is 935.1 ± 1 kg/m3.
